In PubChem BioAssay AID1259407 (Chemical Carcinogenesis Research Information System (CCRIS), 2018):
The source made the active and inactive calls. No rule for the calls is given here.

Tested on: CCRIS mutagenicity, Ames/micronucleus/aberration tests
Experiment: CCRIS mutagenicity studies
[1] = Test System: AMES SALMONELLA TYPHIMURIUM, Strain/Indicator: TA98, Metabolic Activation: NONE, Method: STANDARD PLATE
[2] = Test System: AMES SALMONELLA TYPHIMURIUM, Strain/Indicator: TA100, Metabolic Activation: NONE, Method: STANDARD PLATE
[3] = Test System: AMES SALMONELLA TYPHIMURIUM, Strain/Indicator: TA1535, Metabolic Activation: NONE, Method: STANDARD PLATE
[4] = Test System: AMES SALMONELLA TYPHIMURIUM, Strain/Indicator: TA1537, Metabolic Activation: NONE, Method: STANDARD PLATE
[5] = Test System: AMES SALMONELLA TYPHIMURIUM, Strain/Indicator: TA98, Metabolic Activation: NONE, Method: PREINCUBATION
[6] = Test System: AMES SALMONELLA TYPHIMURIUM, Strain/Indicator: TA100, Metabolic Activation: NONE, Method: PREINCUBATION
[7] = Test System: AMES SALMONELLA TYPHIMURIUM, Strain/Indicator: TA102, Metabolic Activation: NONE, Method: PREINCUBATION
[8] = Test System: AMES SALMONELLA TYPHIMURIUM, Strain/Indicator: TA104, Metabolic Activation: NONE, Method: PREINCUBATION

Measured: mutagenic call

O=C(Nc1ccc(Br)cc1)c1cc(Br)cc(Br)c1O
inactive: [1] inactive; negative | Test System: AMES SALMONELLA TYPHIMURIUM, Strain/Indicator: TA98, Metabolic Activation: RAT, LIVER, S-9, KANECHLOR 400, Method: STANDARD PLATE inactive; negative | [2] inactive; negative | Test System: AMES SALMONELLA TYPHIMURIUM, Strain/Indicator: TA100, Metabolic Activation: RAT, LIVER, S-9, KANECHLOR 400, Method: STANDARD PLATE inactive; negative | [3] inactive; negative | Test System: AMES SALMONELLA TYPHIMURIUM, Strain/Indicator: TA1535, Metabolic Activation: RAT, LIVER, S-9, KANECHLOR 400, Method: STANDARD PLATE inactive; negative | [4] inactive; negative | Test System: AMES SALMONELLA TYPHIMURIUM, Strain/Indicator: TA1537, Metabolic Activation: RAT, LIVER, S-9, KANECHLOR 400, Method: STANDARD PLATE inactive; negative | Test System: AMES SALMONELLA TYPHIMURIUM, Strain/Indicator: TA1538, Metabolic Activation: NONE, Method: STANDARD PLATE inactive; negative | Test System: AMES SALMONELLA TYPHIMURIUM, Strain/Indicator: TA1538, Metabolic Activation: RAT, LIVER, S-9, KANECHLOR 400, Method: STANDARD PLATE inactive; negative

O=C1C=Cc2c(ccc3cc4ccccc4cc23)C1=O
inactive: Test System: AMES SALMONELLA TYPHIMURIUM, Strain/Indicator: TA97A, Metabolic Activation: NONE, Method: PREINCUBATION inactive; negative | [5] inactive; negative | [6] inactive; negative | [7] inactive; negative | [8] inactive; negative

N[C@@H](CSc1ccc([N+](=O)[O-])cc1[N+](=O)[O-])C(=O)O
active: Test System: AMES SALMONELLA TYPHIMURIUM, Strain/Indicator: TA100(NR), Metabolic Activation: NONE, Method: PREINCUBATION active; positive | Test System: AMES SALMONELLA TYPHIMURIUM, Strain/Indicator: TA100/GSH-, Metabolic Activation: NONE, Method: PREINCUBATION active; positive | [6] active; positive

COc1ccc(S(=O)(=O)n2ncc(Cl)c(Cl)c2=O)cc1
inactive: [1] inactive; negative | Test System: AMES SALMONELLA TYPHIMURIUM, Strain/Indicator: TA98, Metabolic Activation: RAT, LIVER, S-9, AROCLOR 1254, Method: STANDARD PLATE inactive; negative | [2] inactive; negative | Test System: AMES SALMONELLA TYPHIMURIUM, Strain/Indicator: TA100, Metabolic Activation: RAT, LIVER, S-9, AROCLOR 1254, Method: STANDARD PLATE inactive; negative | [3] inactive; negative | Test System: AMES SALMONELLA TYPHIMURIUM, Strain/Indicator: TA1535, Metabolic Activation: RAT, LIVER, S-9, AROCLOR 1254, Method: STANDARD PLATE inactive; negative | [4] inactive; negative | Test System: AMES SALMONELLA TYPHIMURIUM, Strain/Indicator: TA1537, Metabolic Activation: RAT, LIVER, S-9, AROCLOR 1254, Method: STANDARD PLATE inactive; negative

O=C1CCCO1
active: End Point: IN VITRO CHROMOSOMAL ABERRATIONS, Test System: CHO CELLS, Metabolic Activation: RAT, LIVER, S-9, AROCLOR 1254 active; positive
inactive: End Point: IN VITRO CHROMOSOMAL ABERRATIONS, Test System: CHO CELLS, Metabolic Activation: NONE inactive; negative | Test System: AMES SALMONELLA TYPHIMURIUM, Strain/Indicator: TA98, Metabolic Activation: HAMSTER, LIVER, S-9, AROCLOR 1254 (10%), Method: PREINCUBATION inactive; negative | [5] inactive; negative | Test System: AMES SALMONELLA TYPHIMURIUM, Strain/Indicator: TA98, Metabolic Activation: RAT LIVER S-9, PHENOBARBITAL AND BETA-NAPHTHOFLAVONE, Method: PREINCUBATION inactive; negative | Test System: AMES SALMONELLA TYPHIMURIUM, Strain/Indicator: TA98, Metabolic Activation: RAT, LIVER, S-9, AROCLOR 1254 (10%), Method: PREINCUBATION inactive; negative | Test System: AMES SALMONELLA TYPHIMURIUM, Strain/Indicator: TA98, Metabolic Activation: RAT, LIVER, S-9, AROCLOR 1254, Method: PREINCUBATION inactive; negative | Test System: AMES SALMONELLA TYPHIMURIUM, Strain/Indicator: TA100, Metabolic Activation: HAMSTER, LIVER, S-9, AROCLOR 1254 (10%), Method: PREINCUBATION inactive; negative | [6] inactive; negative | Test System: AMES SALMONELLA TYPHIMURIUM, Strain/Indicator: TA100, Metabolic Activation: RAT LIVER S-9, PHENOBARBITAL AND BETA-NAPHTHOFLAVONE, Method: PREINCUBATION inactive; negative | Test System: AMES SALMONELLA TYPHIMURIUM, Strain/Indicator: TA100, Metabolic Activation: RAT, LIVER, S-9, AROCLOR 1254 (10%), Method: PREINCUBATION inactive; negative | Test System: AMES SALMONELLA TYPHIMURIUM, Strain/Indicator: TA100, Metabolic Activation: RAT, LIVER, S-9, AROCLOR 1254, Method: PREINCUBATION inactive; negative | [7] inactive; negative | Test System: AMES SALMONELLA TYPHIMURIUM, Strain/Indicator: TA102, Metabolic Activation: RAT LIVER S-9, PHENOBARBITAL AND BETA-NAPHTHOFLAVONE, Method: PREINCUBATION inactive; negative | Test System: AMES SALMONELLA TYPHIMURIUM, Strain/Indicator: TA102, Metabolic Activation: RAT, LIVER, S-9, AROCLOR 1254, Method: PREINCUBATION inactive; negative | [8] inactive; negative | Test System: AMES SALMONELLA TYPHIMURIUM, Strain/Indicator: TA104, Metabolic Activation: RAT LIVER S-9, PHENOBARBITAL AND BETA-NAPHTHOFLAVONE, Method: PREINCUBATION inactive; negative | Test System: AMES SALMONELLA TYPHIMURIUM, Strain/Indicator: TA1535, Metabolic Activation: HAMSTER, LIVER, S-9, AROCLOR 1254 (10%), Method: PREINCUBATION inactive; negative | Test System: AMES SALMONELLA TYPHIMURIUM, Strain/Indicator: TA1535, Metabolic Activation: NONE, Method: PREINCUBATION inactive; negative | Test System: AMES SALMONELLA TYPHIMURIUM, Strain/Indicator: TA1535, Metabolic Activation: RAT LIVER S-9, PHENOBARBITAL AND BETA-NAPHTHOFLAVONE, Method: PREINCUBATION inactive; negative | Test System: AMES SALMONELLA TYPHIMURIUM, Strain/Indicator: TA1535, Metabolic Activation: RAT, LIVER, S-9, AROCLOR 1254 (10%), Method: PREINCUBATION inactive; negative | Test System: AMES SALMONELLA TYPHIMURIUM, Strain/Indicator: TA1537, Metabolic Activation: HAMSTER, LIVER, S-9, AROCLOR 1254 (10%), Method: PREINCUBATION inactive; negative | Test System: AMES SALMONELLA TYPHIMURIUM, Strain/Indicator: TA1537, Metabolic Activation: NONE, Method: PREINCUBATION inactive; negative | Test System: AMES SALMONELLA TYPHIMURIUM, Strain/Indicator: TA1537, Metabolic Activation: RAT LIVER S-9, PHENOBARBITAL AND BETA-NAPHTHOFLAVONE, Method: PREINCUBATION inactive; negative | Test System: AMES SALMONELLA TYPHIMURIUM, Strain/Indicator: TA1537, Metabolic Activation: RAT, LIVER, S-9, AROCLOR 1254 (10%), Method: PREINCUBATION inactive; negative | Test System: E.COLI, Strain/Indicator: WP2UVRA, Metabolic Activation: NONE, Method: PREINCUBATION inactive; negative | Test System: E.COLI, Strain/Indicator: WP2UVRA, Metabolic Activation: RAT LIVER S-9, PHENOBARBITAL AND BETA-NAPHTHOFLAVONE, Method: PREINCUBATION inactive; negative | Test System: E.COLI, Strain/Indicator: WP2UVRA\PKM101, Metabolic Activation: NONE, Method: PREINCUBATION inactive; negative | Test System: E.COLI, Strain/Indicator: WP2UVRA\PKM101, Metabolic Activation: RAT LIVER S-9, PHENOBARBITAL AND BETA-NAPHTHOFLAVONE, Method: PREINCUBATION inactive; negative

CC(N)c1ccccc1.CC(N)c1ccccc1.[Cl][Pt][Cl] (stereo not drawn)
active: [1] active; positive | [2] active; positive | Test System: AMES SALMONELLA TYPHIMURIUM, Strain/Indicator: TA2410, Metabolic Activation: NONE, Method: STANDARD PLATE active; positive
